What was measured:
bFGF [1] = target: T1, bFGF (Homo sapiens, UniProt P09038); experiment: Evaluation of bFGF stabilization in Lonza serum-free medium (ELISA); assay type: biochemical
T1 construct: purchased Lonza (via TAKARA BIO INC.) Ser. No. 00/190,632
Method: (§1) A test compound was dissolved in phosphate buffered saline, and diluted 10-fold with a serum-free medium to adjust to the concentrations shown in Table 4 (test sample). The test sample was left standing in a tightly sealed Falcon tube at 37° C. for 7 days (Tables 5 to 8-2) or 3 days (Table 8-3), and the bFGF concentration was quantified by ELISA measurement. A phosphate buffered saline without a test compound was diluted 10-fold with a serum-free medium, and left standing at 37° C. or 4° C. for 7 days or 3 days, and used as a control.
(§2) A commercially available measurement kit (human bFGF ELISA kit, ELH-bFGF-001, Ray Biotech) was used for quantification of bFGF in the medium. The measurement procedures followed the protocol attached to the kit. The bFGF concentration of the serum-free medium was calculated from the analytical curve (conversion formula) drawn from the absorbance of an analytical curve standard solution. The evaluation criteria of Tables 5-8 are as follows:
as §1, with “Table 13” for “Table 4”, “7 days,” for “7 days (Tables 5 to 8-2) or 3 days (Table 8-3),”, “7” for “7 days or 3”
as §2, with “Table 13” for “Tables 5-8”, “follows: […]” for “follows:”

bFGF [2] = target: T1, bFGF; experiment: Evaluation of bFGF stabilization in Essential 8 medium (ELISA); assay type: biochemical; conditions: 37° C. for 7 days
Method: as §2
(§3) A test compound was dissolved in phosphate buffered saline, and diluted 10-fold with a serum-free medium to adjust the concentration shown in Table 4 (test sample). The test sample was left standing in a tightly sealed Falcon tube at 37° C. for 7 days, and the bFGF concentration was quantified by ELISA measurement. A phosphate buffered saline without a test compound was diluted 10-fold with Essential 8 medium or ReproFF2 medium, and left standing at 37° C. or 4° C. for 7 days, and used as a control.
as §2, with “Table 13” for “Tables 5-8”
as §3, with “Table 12” for “Table 4”

[3] = tested on: Human bone marrow-derived mesenchymal stem cells; experiment: Mesenchymal stem cell proliferation system (cell number by DNA quantification)
Method: Human bone marrow-derived mesenchymal stem cells (Lonza, Human Mesenchymal Stem Cell) cultured in mesenchymal stem cell-dedicated medium (Lonza, MSCGM) or Dulbecco's Modified Eagle Medium (Invitrogen, GIBCO D-MEM) containing inactivated fetal bovine serum (Invitrogen, GIBCO FBS) and penicillin-streptomycin (Sigma-Aldrich Co. LLC.) were cultured in exchanged Lonza serum-free medium. The mesenchymal stem cells thus-acclimated to serum-free culture were suspended in Lonza serum-free medium, and seeded on a 24 well culture plate (Nippon Becton Dickinson Company, Ltd., Falcon culture plate) at 20,000 cells/well or a 6 well culture plate (Nippon Becton Dickinson Company, Ltd., Falcon culture plate) at 50,000 cells/well. Then, a test compound solution after filter sterilization and adjustment to a given concentration was added, and the cells were cultured in an incubator (Thermo Scientific, Forma incubator) under the 5% CO2/37° C. conditions for 7 to 8 days. When the medium exchange was necessary, the medium was exchanged 2 to 3 days after the seeding. In this case, the test compound solution was also added again in the same manner as in seeding. In this case, various compound solutions were added again in the same manner as in seeding. After culturing for 7 to 8 days, the medium was removed and DNA quantification was performed. As a control, the cells were cultured in the same manner in a medium without a test compound and added with phosphate buffered saline.
The medium in the 24 well culture plate was removed, and the cells were washed with phosphate buffered saline. The sodium lauryl sulfate solution (500 μl/well) was added, and the mixture was left standing at 37° C. for 4 hours. The sodium lauryl sulfate solution (1.0 ml) was also added to a cell pellet with a known cell number, and the mixture was left standing at 37° C. for 4 hours. As for the cells in the 24 well culture plate, a part (50 μl) of the lysate was transferred to a 96 well black microplate. The solution used for treating the cell pellets was successively diluted with sodium lauryl sulfate solution and used as solutions for drawing an analytical curve. Also, a part (50 μl) of the solutions for drawing an analytical curve was each transferred to the 96 well black microplate. […] The fluorescence was measured by a microplate reader (excitation wavelength: 355 nm, measurement wavelength: 460 nm) within 5 minutes from the addition. The cell number of the 24 well cell culture plate was calculated from the analytical curve drawn (conversion formula). The evaluation criteria were as follows.

[4] = Lonza serum-free medium, 37° C. for 7 days, test compound 25 ng/ml
[5] = Lonza serum-free medium, 37° C. for 7 days, test compound 250 ng/ml
[6] = Lonza serum-free medium, 37° C. for 7 days, test compound 25 μg/ml
[7] = Lonza serum-free medium, 37° C. for 7 days, test compound 250 μg/ml
[8] = Lonza serum-free medium, 37° C. for 7 days, test compound 250 pg/ml

T1 sequence (P09038 143-288): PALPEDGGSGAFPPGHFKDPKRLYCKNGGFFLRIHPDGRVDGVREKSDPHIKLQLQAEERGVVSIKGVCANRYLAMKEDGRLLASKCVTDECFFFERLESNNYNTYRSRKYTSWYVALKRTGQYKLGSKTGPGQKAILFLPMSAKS

Row | Compound | bFGF concentration relative to that of 4° C. control (ELISA) (bFGF [1]; [4]) | bFGF concentration relative to that of 4° C. control (ELISA) (bFGF [1]; [5]) | bFGF concentration relative to that of 4° C. control (ELISA) (bFGF [1]; [6]) | bFGF concentration relative to that of 4° C. control (ELISA) (bFGF [1]; [7]) | other results
1 | OC[C@@H](O)[C@@H](O[C@H]1O[C@H](CO)[C@@H](O)[C@H](O)[C@H]1O)[C@H](O)[C@@H](O)CO [maltitol, reference compound] | x (bFGF concentration was less than 10% relative to that of 4 °C control) | x (bFGF concentration was less than 10% relative to that of 4 °C control) | x (bFGF concentration was less than 10% relative to that of 4 °C control) | x (bFGF concentration was less than 10% relative to that of 4 °C control) | –
2 | OC[C@H]1O[C@H](O[C@H]2[C@H](O)[C@@H](O)[C@@H](O[C@H]3[C@H](O)[C@@H](O)C(O)O[C@@H]3CO)O[C@@H]2CO)[C@H](O)[C@@H](O)[C@@H]1O (stereo partly drawn) [maltotriose, reference compound] | x (bFGF concentration was less than 10% relative to that of 4 °C control) | x (bFGF concentration was less than 10% relative to that of 4 °C control) | x (bFGF concentration was less than 10% relative to that of 4 °C control) | x (bFGF concentration was less than 10% relative to that of 4 °C control) | bFGF concentration relative to that of 4° C. control (ELISA) (bFGF [2]; test compound 250 pg/ml): x (bFGF concentration was less than 10% relative to that of 4 °C control); bFGF concentration relative to that of 4° C. control (ELISA) (bFGF [2]; test compound 25 ng/ml): x (bFGF concentration was less than 10% relative to that of 4 °C control); bFGF concentration relative to that of 4° C. control (ELISA) (bFGF [2]; test compound 250 ng/ml): x (bFGF concentration was less than 10% relative to that of 4 °C control); bFGF concentration relative to that of 4° C. control (ELISA) (bFGF [2]; test compound 25 μg/ml): x (bFGF concentration was less than 10% relative to that of 4 °C control); bFGF concentration relative to that of 4° C. control (ELISA) (bFGF [2]; test compound 250 μg/ml): x (bFGF concentration was less than 10% relative to that of 4 °C control)
3 | OC[C@@H](O)[C@@H](O)[C@H](O)[C@H](O)CO [mannitol, reference compound] | x (bFGF concentration was less than 10% relative to that of 4 °C control) | x (bFGF concentration was less than 10% relative to that of 4 °C control) | x (bFGF concentration was less than 10% relative to that of 4 °C control) | x (bFGF concentration was less than 10% relative to that of 4 °C control) | –
4 | NC(COS(=O)(=O)[O-])C(=O)O.[Na+] (stereo not drawn) [serine SO3Na] | x (bFGF concentration was less than 10% relative to that of 4 °C control) | x (bFGF concentration was less than 10% relative to that of 4 °C control) | − (bFGF concentration was not less than 10% and less than 30% relative to that of 4 °C control) | +++ (bFGF concentration was not less than 70% relative to that of 4 °C control) | concentration showing a suppressive effect on a decrease in the bFGF concentration of the medium (bFGF [1]; Lonza serum-free medium, 37° C. for 7 days): not less than 25 μg/ml; bFGF concentration relative to that of 4° C. control (ELISA) (bFGF [1]; [8]): x (bFGF concentration was less than 10% relative to that of 4 °C control); number of cells relative to control ([3]; test compound 25 pg/ml, mesenchymal stem cells): — (100-50); number of cells relative to control ([3]; test compound 250 pg/ml, mesenchymal stem cells): — (100-50); number of cells relative to control ([3]; test compound 25 ng/ml, mesenchymal stem cells): — (100-50); number of cells relative to control ([3]; test compound 250 ng/ml, mesenchymal stem cells): — (100-50)
5 | N[C@@H](CO)C(=O)O [serine, reference compound] | x (bFGF concentration was less than 10% relative to that of 4 °C control) | x (bFGF concentration was less than 10% relative to that of 4 °C control) | x (bFGF concentration was less than 10% relative to that of 4 °C control) | x (bFGF concentration was less than 10% relative to that of 4 °C control) | bFGF concentration relative to that of 4° C. control (ELISA) (bFGF [1]; [8]): x (bFGF concentration was less than 10% relative to that of 4 °C control)
6 | OC[C@H]1O[C@@](CO)(O[C@H]2O[C@H](CO)[C@@H](O)[C@H](O)[C@H]2O)[C@@H](O)[C@@H]1O [sucrose, reference compound] | x (bFGF concentration was less than 10% relative to that of 4 °C control) | x (bFGF concentration was less than 10% relative to that of 4 °C control) | x (bFGF concentration was less than 10% relative to that of 4 °C control) | – | –
7 | OC[C@@H](O)[C@H](O)[C@@H](O)CO [xylitol, reference compound] | x (bFGF concentration was less than 10% relative to that of 4 °C control) | x (bFGF concentration was less than 10% relative to that of 4 °C control) | x (bFGF concentration was less than 10% relative to that of 4 °C control) | x (bFGF concentration was less than 10% relative to that of 4 °C control) | –
8 | OC[C@H]1O[C@@H]2O[C@H]3[C@H](O)[C@@H](O)[C@@H](O[C@H]4[C@H](O)[C@@H](O)[C@@H](O[C@H]5[C@H](O)[C@@H](O)[C@@H](O[C@H]6[C@H](O)[C@@H](O)[C@@H](O[C@H]7[C@H](O)[C@@H](O)[C@@H](O[C@H]1[C@H](O)[C@H]2O)O[C@@H]7CO)O[C@@H]6CO)O[C@@H]5CO)O[C@@H]4CO)O[C@@H]3CO [α-CD, α-cyclodextrin, reference compound] | – | – | – | x (bFGF concentration was less than 10% relative to that of 4 °C control) | –
9 | tartrate-SO3Na | x (bFGF concentration was less than 10% relative to that of 4 °C control) | − (bFGF concentration was not less than 10% and less than 30% relative to that of 4 °C control) | x (bFGF concentration was less than 10% relative to that of 4 °C control) | x (bFGF concentration was less than 10% relative to that of 4 °C control) | concentration showing a suppressive effect on a decrease in the bFGF concentration of the medium (bFGF [2]): not less than 250 μg/ml; bFGF concentration relative to that of 4° C. control (ELISA) (bFGF [2]; test compound 250 pg/ml): x (bFGF concentration was less than 10% relative to that of 4 °C control); bFGF concentration relative to that of 4° C. control (ELISA) (bFGF [2]; test compound 25 ng/ml): x (bFGF concentration was less than 10% relative to that of 4 °C control); bFGF concentration relative to that of 4° C. control (ELISA) (bFGF [2]; test compound 250 ng/ml): x (bFGF concentration was less than 10% relative to that of 4 °C control); bFGF concentration relative to that of 4° C. control (ELISA) (bFGF [2]; test compound 25 μg/ml): x (bFGF concentration was less than 10% relative to that of 4 °C control); bFGF concentration relative to that of 4° C. control (ELISA) (bFGF [2]; test compound 250 μg/ml): − (bFGF concentration was not less than 10% and less than 30% relative to that of 4 °C control); concentration at which a decrease in the protein amount of FGF is not suppressed (bFGF [1]; as shown in the Examples (methods of Examples I-1 and II-1)): not more than 250 μg/ml; effectiveness ELISA (bFGF [1]; effectiveness in ELISA evaluation of mesenchymal stem cells (medium), 4° C. control ratio): ++ (++ 50%<); effectiveness cells ([3]; growth of mesenchymal stem cell, control ratio): ◯ (◯ not leas than 100%); concentration showing promoted cell proliferation as compared to the control ([3]; mesenchymal stem cells, Lonza serum-free medium): 2.5 ng/mL
